# Settings: buffer; pH 7.4; 200.0 µM
row,SMILES,solubility kinetic
1,Cn1c(=O)oc2cc(S(=O)(=O)Nc3ccc(Cl)cc3)ccc21,4.1 µg/mL
2,C=CCNC(=O)CN(Cc1ccccc1)S(=O)(=O)c1ccccc1,> 51.7 µg/mL
3,COc1ccc(-c2cc(C(=O)N3CCCCC3)c3ccccc3n2)cc1OC,51.6 µg/mL
4,C/C=C/C(=O)Nc1ccc(N2CCN(c3ccc(C(F)(F)F)cn3)CC2)nc1,< 0.2 µg/mL
5,Cc1cccc(C)c1C(=NCCN(C)C)c1ccccc1.Cl,> 53 µg/mL
6,CCCOc1ccc(C(=O)Nc2cccnc2)cc1,36 µg/mL
7,COCC1CCCN(Cc2nc(Cc3ccccc3)no2)C1 (stereo not given),44.7 µg/mL
8,CCOc1ccc(N(C)S(=O)(=O)c2cnc[nH]2)cc1,> 42.2 µg/mL
9,CNC(=O)COC(=O)c1ccccc1NC(=O)c1ccco1,> 45.3 µg/mL
10,Nc1ccccc1SCC(O)Cn1ccc2ccccc21 (stereo not given),> 44.8 µg/mL
11,O=C(NCC(=O)N1CC=C(c2ccccc2)CC1)c1ccco1,> 46.6 µg/mL
12,O=[N+]([O-])c1ccc(N2CCNCC2)cc1N1CCCCC1,> 43.6 µg/mL
13,CCCCCN1C=CC=C/C1=C\C=C(C#N)C#N,6.9 µg/mL
14,O=C(O)c1ccc(Nc2ccc(F)c(F)c2)c([N+](=O)[O-])c1,> 44.1 µg/mL
15,Cc1ccc(S(=O)(=O)CCC(=O)NC2CCCC2)cc1,> 44.3 µg/mL
16,CSc1ccccc1C(=O)OCC(=O)N1CCCCCC1,> 46.1 µg/mL
17,Nc1ccc(N2CCCC2)c(S(=O)(=O)Nc2cccc(C(F)(F)F)c2)c1,25.8 µg/mL
18,O=C(CN1CCc2cc3c(cc2C1)OCCCO3)Nc1ccccc1,4.4 µg/mL
19,NC(=O)C1CCN(c2nc3ccccc3nc2NS(=O)(=O)c2ccc(Br)cc2)CC1,53.9 µg/mL
20,c1ccc2c(c1)COC(CN1CCCCC1)OC2,35.6 µg/mL
21,Cc1ccc2cccc(OCc3ccccc3)c2n1,20.8 µg/mL
22,Cc1cc(NC(=O)Nc2cc(Cl)sc2Cl)no1,< 0.2 µg/mL
23,COc1cc(/C=C2\SC(=O)N(CCNC(=O)c3c(C)noc3C)C2=O)cc(OC)c1OC,4.8 µg/mL
24,O=C(Nc1ccncc1)Nc1cccc(Cl)c1Cl,24.1 µg/mL

row,SMILES,solubility kinetic
1,CC(C)CN1C2CCCC1CC(NC(=S)NCc1ccco1)C2 (stereo not given),> 50.3 µg/mL
2,O=C(COC(=O)c1ccc(O)cc1)NC(c1ccccc1)c1ccccc1,1.7 µg/mL
3,Cc1ccc(NC(=O)c2ccc(Cl)nc2)cc1S(=O)(=O)N1CCOCC1,12.4 µg/mL
4,CCCN(CC(=O)Nc1ccccc1C)C(=O)c1cnc(C)cn1,> 49 µg/mL
5,Cl.c1ccc2c(c1)CC(N1CCCCC1)c1ccccc1S2 (stereo not given),1.8 µg/mL
6,O=C(Nc1ccc(N2CCOCC2)cc1)c1cnccn1,> 42.6 µg/mL
7,CNc1cc(Cl)nc(SC)n1,> 28.4 µg/mL
8,Cc1cc(C(=O)OCC(=O)NC2(C#N)CCCCC2)c(C)o1,> 45.7 µg/mL
9,CN(Cc1ccccc1)S(=O)(=O)c1cccc2nsnc12,3 µg/mL
10,CC(=O)N/C(=C/c1ccc2c(c1)OCO2)C(=O)N1CCOCC1,45 µg/mL
11,CCc1ccc2c(CN3CCN(S(=O)(=O)c4ccccc4F)CC3)cc(=O)oc2c1,3.4 µg/mL
12,COC(=O)c1ccc(COc2ccc(C)cc2[N+](=O)[O-])o1,3.3 µg/mL
13,CSc1ccccc1C(=O)NCCOc1ccccc1C,> 45.2 µg/mL
14,Cc1onc(-c2ccccc2)c1C(=O)N1CCCN2C(=O)c3ccccc3C21 (stereo not given),48.7 µg/mL
15,Cc1ccc2c(c1)N(Cc1cccc(C#N)c1)C=NS2(=O)=O,8.1 µg/mL
16,COC(=O)c1ccc(CN2C(=O)C3CCCCC3C2=O)o1 (stereo not given),> 43.7 µg/mL
17,CCCC(=O)N(Cc1cc(=O)[nH]c2ccccc12)c1ccccc1C,41.1 µg/mL
18,Fc1ccc(N2CCN(C3CCC(c4ccccc4)CC3)CC2)cc1 (stereo not given),1.1 µg/mL
19,NC(=O)CCCc1nc(-c2ccccc2)no1,> 34.7 µg/mL
20,CCOC(=O)c1c(C)[nH]c(C)c1C(=O)COC(=O)c1cccnc1OCC,> 56.2 µg/mL
21,CCCCC(C(=O)O)C(C)CC(=O)Nc1nccs1 (stereo not given),> 42.7 µg/mL
22,Cc1ccc(Sc2c([N+](=O)[O-])c(=O)n(C)c3ccccc23)cc1,< 0.3 µg/mL
23,CCCN(CC(=O)Nc1ccccc1OC)C(=O)c1cc2ccccc2o1,25.5 µg/mL
24,O=C(NC1CC1)C1CC(=O)N(c2ccccc2)C1 (stereo not given),> 36.6 µg/mL

row,SMILES,solubility kinetic
1,O=c1c2oc3ccccc3c2ncn1Cc1cccc(Cl)c1,< 0.3 µg/mL
2,CCOC(=O)Cn1c(=O)oc2cc(S(=O)(=O)NC(C)(C)CC)ccc21,53.8 µg/mL
3,COc1ccc(S(=O)(=O)Nc2ccncc2)c(C)c1C,4.6 µg/mL
4,Cc1oc(-c2cccc(Br)c2)[n+]([O-])c1C,> 40.2 µg/mL
5,O=C(Nc1cccc(Cl)c1)C1CCN(C(=O)c2cccs2)CC1,48.4 µg/mL
6,O=C(O)c1ccccc1C(=O)NC1Cc2ccccc2C1,42.1 µg/mL
7,COC(=O)c1sc(NC(=O)c2cc(C)on2)nc1C,35.5 µg/mL
8,CCOP(=O)(OCC)C(NC(=O)CC(C)C)C(Cl)(Cl)Cl (stereo not given),> 55.3 µg/mL
9,CCOC(=O)Cn1c(=O)n(Cc2ccccc2)c(=O)c2cccnc21,7.6 µg/mL
10,COc1cc(CN2CCN(CC3CC3)CC2CCO)cc(OC)c1 (stereo not given),42.6 µg/mL
11,CC(C)(C)c1ccc(C(=O)OCCN2CCCCC2)cc1.Cl,46 µg/mL
12,CCn1c(NC(=O)/C=C/c2ccc(F)cc2)nc2ccccc21,3.5 µg/mL
13,CN(C)CCN1C(=O)NC(C)(c2ccc([N+](=O)[O-])cc2)C1=O (stereo not given),> 45.9 µg/mL
14,CN(C)CCCNc1nc(N)c([N+](=O)[O-])c(NCCO)n1,39 µg/mL
15,CCCc1cc(=O)[nH]c(Nc2ccc(Cl)cc2)n1,4.4 µg/mL
16,CCn1c(SCc2nc3ccccc3c(=O)[nH]2)nc2ccccc21,1.1 µg/mL
17,Cc1c(F)cccc1NC(=O)CCCCCC1NC(=O)NC1C (stereo not given),46.7 µg/mL
18,COc1cc(N2Cc3ccccc3C2)ccc1C=O,1.8 µg/mL
19,O=C(COC(=O)c1cc(S(=O)(=O)N2CCOCC2)ccc1F)c1ccccc1,> 61.1 µg/mL
20,Oc1ccc2ccccc2c1CN1CCOCC1,> 36.5 µg/mL
21,Cc1ccc(C(=O)NC2CC(C)(C)NC(C)(C)C2)cc1Cl,43.6 µg/mL
22,CSCCC1NC(=O)N(CC(=O)Nc2cc(C)on2)C1=O (stereo not given),> 46.9 µg/mL
23,CCc1cccc(NC(=O)c2cc(OC)c(OC)c(OC)c2)c1,34.2 µg/mL
24,O=C(CCc1nc2ccccc2s1)NC1CCOC1=O (stereo not given),> 43.6 µg/mL

row,SMILES,solubility kinetic
1,Cc1cc2ccccn2c1C(=O)c1ccc(F)cc1,0.9 µg/mL
2,O=C(OCC(=O)N1CCN(c2ccccc2)CC1)c1ccncc1,> 48.8 µg/mL
3,CCc1nn(CC(=O)N2CCC(C)CC2)c(=O)c2cccn12,> 45.4 µg/mL
4,O=C(CN1C(=O)NC(CCc2ccccc2)C1=O)Nc1ccc(F)c(F)c1F (stereo not given),4.5 µg/mL
5,COc1cc(OC)c(C(=O)NCc2ccco2)cc1OC,> 43.7 µg/mL
6,O=C1Nc2ccccc2C1C(C[N+](=O)[O-])c1ccccc1 (stereo not given),> 42.3 µg/mL
7,CC(=O)Nc1sc(-c2ccc(Cl)cc2)nc1-c1ccccc1,< 0.4 µg/mL
8,CCCCOc1ccc(C(=O)NCCOc2cccc(OC)c2)cc1,4 µg/mL
9,O=C(COc1ccccc1)Nc1ccc2[nH]c(=O)[nH]c2c1,36.9 µg/mL
10,CCc1ccc(NC(=S)NCc2ccccc2)cc1,27.4 µg/mL
11,CC1CCN(C(=O)c2ccc3c(c2)OCO3)CC1,36.9 µg/mL
12,N#Cc1cnc(NCc2ccc(Cl)cc2Cl)nc1,0.5 µg/mL
13,COc1cc(SC)ccc1C(=O)N1CCc2ccccc21,4.5 µg/mL
14,Cn1c(/C=C/c2ccccc2[N+](=O)[O-])nc2ccccc2c1=O,0.6 µg/mL
15,Nc1cccc([N+](=O)[O-])c1,16.7 µg/mL
16,O=C(COC(=O)C1CC1)Nc1ccc2[nH]c(=O)[nH]c2c1,> 41.3 µg/mL
17,O=C(Nc1ccccc1)Nc1ccno1,> 30.5 µg/mL
18,OCC1CCCCN1C(=S)NCc1ccco1 (stereo not given),32.1 µg/mL
19,CCOC(=O)C1=C(C)OC(N)=C(C#N)C1c1cccs1 (stereo not given),17.1 µg/mL
20,N#CC(CCN1CCOCC1)(c1ccccc1)c1ccccc1,43.1 µg/mL
21,O=C(Cc1cccs1)Nc1ccc([N+](=O)[O-])cc1,39 µg/mL
22,CC(=O)Nc1ccc(-c2nc3cc(Cl)ccc3o2)cc1,< 0.3 µg/mL
23,N#CCN1C(=O)NC2(CCCc3sccc32)C1=O (stereo not given),> 39.2 µg/mL
24,COc1cc(OC)c(C(=O)O/N=C(\N)c2ccccn2)cc1OC,> 49.7 µg/mL

row,SMILES,solubility kinetic
1,CCOC(=O)C1=C(C)NC(C)=C(C(=O)OCC)C1C(=O)OCC(=O)N(C)Cc1ccccc1,2.8 µg/mL
2,COc1cccc(CC(=O)Nc2ccc3c(c2)CCC3)c1,8.3 µg/mL
3,Cc1cccc(OCC(=O)NCCNC(=O)c2ccccn2)c1,> 47 µg/mL
4,Cc1ccc2[nH]cc(CCNC(=O)C3CCCO3)c2c1 (stereo not given),> 40.9 µg/mL
5,COc1ccc(-c2cc3cc(OC)c(OC)cc3c(C)n2)cc1C,< 0.7 µg/mL
6,Cc1ccc(F)cc1NC(=O)N1CCCN(C(=O)OC(C)(C)C)CC1,46.9 µg/mL
7,CCCC12CN3CC(CCC)(CN(C1)C3c1ccco1)C2=O (stereo not given),> 45.4 µg/mL
8,COc1ccccc1CNC(=O)c1cc(=O)c2ccccc2o1,10.8 µg/mL
9,Cn1c(=O)c(-c2ccccc2[N+](=O)[O-])c(Cl)c2ccccc21,1.2 µg/mL
10,O=C(CN1C(=O)NC(c2ccccc2)(c2ccccc2)C1=O)NCCc1ccc(F)cc1,7.6 µg/mL
11,Cc1ccc(NC(=O)OCCNC(=O)c2ccncc2)cc1,44.4 µg/mL
12,Cc1ccsc1C(=O)OCC(=O)NCCCc1ccccc1,6.2 µg/mL
13,O=C(c1ccc2c(c1)OCCCO2)N1CCCCC1,28.6 µg/mL
14,COc1cccc(C(=O)N2CCOCC2)c1,32.5 µg/mL
15,CCOC(=O)Cc1csc(NC(=O)Nc2ccc(OC(F)(F)F)cc2)n1,0.3 µg/mL
16,CN1CC(=O)N=C1N.Cl,> 22.4 µg/mL
17,C/C(=N\O)c1noc(C)c1C(=O)Nc1nccs1,2 µg/mL
18,CC(=O)OCc1ccccc1Sc1ccccc1C(=O)NCc1ccccc1,21.1 µg/mL
19,CCCNC(=O)NC(=O)CSc1cccc(C(F)(F)F)c1,12.9 µg/mL
20,O=C(Nc1ccc2c(c1)OCCO2)c1ccc(Cl)c(Cl)c1,< 0.7 µg/mL
21,N#Cc1ccncc1Sc1ccc(Cl)cc1,25.3 µg/mL
22,CC(=O)c1c(C)[nH]c(C(=O)Nc2cccc(C)c2C)c1C,2 µg/mL
23,CC1CN(C(=O)CCS(=O)(=O)c2ccccc2)CC(C)O1 (stereo not given),43.2 µg/mL
24,COc1cccc(NC(=O)C2CC(=O)N(Cc3ccc(C)cc3)C2)c1 (stereo not given),9.3 µg/mL
